Source: PubChem BioAssay AID248 (DTP/NCI, 2004)
“And” between values parts separate entries of the source, which are not always exact repeats. Equal entries are not always repeated. Inconclusive results and toxic doses are left out. Cut-off read from the data, not from the text of the source: active = T/C of 150% or more; inactive = T/C below 125%. Peptide text beside a SMILES is read from it. * marks the point of attachment. Cbz = O=C(OCc1ccccc1)*; Bn = c1ccc(C*)cc1

System: L1210 leukemia ip in BDF1 mice, survival T/C
Test: NCI In Vivo Anticancer Drug Screen. Data for tumor model L1210 Leukemia (intraperitoneal) in B6D2F1 (BDF1) mice
Settings: endpoint: mean survival time, higher = longer survival
Method in brief: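 Read-out is survival time, reported as the treated-group measurement over the vehicle-control measurement.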

[1] = dose: 100.0 mg/kg/injection, schedule: Q04DX003 (ip), vehicle: saline with Tween-80
[2] = dose: 200.0 mg/kg/injection, schedule: Q04DX003 (ip), vehicle: saline with Tween-80
[3] = dose: 400.0 mg/kg/injection, schedule: Q04DX003 (ip), vehicle: saline with Tween-80
[4] = dose: 100.0 mg/kg/injection, schedule: Q01DX001 (ip), vehicle: carboxymethylcellulose (CMC)
[5] = dose: 200.0 mg/kg/injection, schedule: Q01DX001 (ip), vehicle: carboxymethylcellulose (CMC)
[6] = dose: 400.0 mg/kg/injection, schedule: Q01DX001 (ip), vehicle: carboxymethylcellulose (CMC)
[7] = dose: 100.0 mg/kg/injection, schedule: Q04DX003 (ip), vehicle: saline
[8] = dose: 100.0 mg/kg/injection, schedule: Q01DX009 (ip), vehicle: Klucel (hydroxypropylcellulose) (HPC)
[9] = dose: 100.0 mg/kg/injection, schedule: Q04DX003 (ip), vehicle: Klucel (hydroxypropylcellulose) (HPC)
[10] = dose: 200.0 mg/kg/injection, schedule: Q01DX009 (ip), vehicle: Klucel (hydroxypropylcellulose) (HPC)
[11] = dose: 200.0 mg/kg/injection, schedule: Q04DX003 (ip), vehicle: Klucel (hydroxypropylcellulose) (HPC)
[12] = dose: 400.0 mg/kg/injection, schedule: Q01DX009 (ip), vehicle: Klucel (hydroxypropylcellulose) (HPC)
[13] = dose: 50.0 mg/kg/injection, schedule: Q01DX001 (ip), vehicle: saline
[14] = dose: 100.0 mg/kg/injection, schedule: Q01DX001 (ip), vehicle: saline
[15] = dose: 200.0 mg/kg/injection, schedule: Q01DX001 (ip), vehicle: saline
[16] = dose: 400.0 mg/kg/injection, schedule: Q01DX001 (ip), vehicle: saline

Measured: T/C

O=[N+]([O-])c1cc(Cl)ccc1O
inactive: [1] 91 % of control | [2] 107 % of control | [3] 96 % of control

O=CNn1cn[nH]c1=S
inactive: [4] 95 % of control | [5] 98 % of control | [6] 95 % of control

O=C(Nc1ccc2ccccc2c1)c1ccc2c(c1)C(=O)OC2=O
inactive: [4] 97 % of control and 100 % of control | dose: 100.0 mg/kg/injection, schedule: Q01DX009 (ip), vehicle: carboxymethylcellulose (CMC) 97 % of control and 98 % of control | dose: 100.0 mg/kg/injection, schedule: Q04DX002 (ip), vehicle: carboxymethylcellulose (CMC) 96 % of control and 103 % of control | dose: 100.0 mg/kg/injection, schedule: Q04DX003 (ip), vehicle: carboxymethylcellulose (CMC) 100 % of control and 91 % of control | [5] 93 % of control and 100 % of control | dose: 200.0 mg/kg/injection, schedule: Q01DX009 (ip), vehicle: carboxymethylcellulose (CMC) 96 % of control and 100 % of control | dose: 200.0 mg/kg/injection, schedule: Q04DX002 (ip), vehicle: carboxymethylcellulose (CMC) 99 % of control and 86 % of control | dose: 200.0 mg/kg/injection, schedule: Q04DX003 (ip), vehicle: carboxymethylcellulose (CMC) 92 % of control and 91 % of control | [6] 93 % of control and 97 % of control | dose: 400.0 mg/kg/injection, schedule: Q01DX009 (ip), vehicle: carboxymethylcellulose (CMC) 100 % of control and 104 % of control | dose: 400.0 mg/kg/injection, schedule: Q04DX002 (ip), vehicle: carboxymethylcellulose (CMC) 95 % of control and 90 % of control | dose: 400.0 mg/kg/injection, schedule: Q04DX003 (ip), vehicle: carboxymethylcellulose (CMC) 88 % of control and 89 % of control

CC(=O)[C@H]1CC[C@H]2[C@@H]3C[C@H](C)C4=CC(=O)CC[C@]4(C)[C@@]3(F)[C@@H](O)C[C@]12C
inactive: dose: 12.5 mg/kg/injection, schedule: Q04DX002 (ip), vehicle: Klucel (hydroxypropylcellulose) (HPC) 102 % of control | dose: 25.0 mg/kg/injection, schedule: Q04DX002 (ip), vehicle: Klucel (hydroxypropylcellulose) (HPC) 105 % of control | dose: 50.0 mg/kg/injection, schedule: Q04DX002 (ip), vehicle: Klucel (hydroxypropylcellulose) (HPC) 102 % of control | dose: 100.0 mg/kg/injection, schedule: Q04DX003 (ip), vehicle: steriod suspending solution 96 % of control | dose: 200.0 mg/kg/injection, schedule: Q04DX003 (ip), vehicle: steriod suspending solution 105 % of control | dose: 400.0 mg/kg/injection, schedule: Q04DX003 (ip), vehicle: steriod suspending solution 102 % of control

OC(c1ccc(Cl)cc1)c1nc2ccccc2[nH]1 (centres undefined)
inactive: dose: 100.0 mg/kg/injection, schedule: Q04DX002 (ip), vehicle: Klucel (hydroxypropylcellulose) (HPC) 100 % of control | dose: 200.0 mg/kg/injection, schedule: Q04DX002 (ip), vehicle: Klucel (hydroxypropylcellulose) (HPC) 100 % of control | dose: 400.0 mg/kg/injection, schedule: Q04DX002 (ip), vehicle: Klucel (hydroxypropylcellulose) (HPC) 103 % of control

Clc1nc(Cl)c2c3c(sc2n1)CCCC3
inactive: dose: 100.0 mg/kg/injection, schedule: Q01DX001 (ip), vehicle: saline sonified 92 % of control | dose: 200.0 mg/kg/injection, schedule: Q01DX001 (ip), vehicle: saline sonified 107 % of control | dose: 400.0 mg/kg/injection, schedule: Q01DX001 (ip), vehicle: saline sonified 90 % of control

O=C1C(=O)C2(O)C(=O)C12O (centres undefined)
inactive: [7] 91 % of control

COC(=O)C(CC(C)C)NC(=O)C(CSCc1ccccc1)NC(=O)OCc1ccccc1 (centres undefined) (Cbz-Cys(Bn)-Leu-OMe; configuration not given here)
inactive: dose: 100.0 mg/kg/injection, schedule: Q04DX003 (ip), vehicle: DMSO 102 % of control | dose: 200.0 mg/kg/injection, schedule: Q04DX003 (ip), vehicle: DMSO 104 % of control | dose: 400.0 mg/kg/injection, schedule: Q04DX003 (ip), vehicle: DMSO 96 % of control

COc1ccc(CCN=C(c2ccccc2)c2ccccc2)cc1OC
inactive: [7] 94 % of control | dose: 200.0 mg/kg/injection, schedule: Q04DX003 (ip), vehicle: saline 94 % of control | dose: 400.0 mg/kg/injection, schedule: Q04DX003 (ip), vehicle: saline 97 % of control

O=Cc1csc2ncccc12
inactive: [1] 103 % of control | [2] 100 % of control | [3] 105 % of control

COc1ccc(COC(=O)Nc2ccc(Cl)c(Cl)c2)cc1OC
inactive: [8] 95 % of control | [9] 101 % of control | [10] 88 % of control | [11] 106 % of control | [12] 95 % of control | dose: 400.0 mg/kg/injection, schedule: Q04DX003 (ip), vehicle: Klucel (hydroxypropylcellulose) (HPC) 90 % of control

CCSCCOP(=S)(N(CC)CC)N(CC)CC
inactive: dose: 100.0 mg/kg/injection, schedule: Q04DX002 (ip), vehicle: saline with Tween-80 88 % of control | dose: 200.0 mg/kg/injection, schedule: Q04DX002 (ip), vehicle: saline with Tween-80 95 % of control | dose: 400.0 mg/kg/injection, schedule: Q04DX002 (ip), vehicle: saline with Tween-80 104 % of control

O=C(O)c1ccccc1-c1c2ccc(=O)c(Br)c-2oc2c(Br)c(O)ccc12
inactive: [13] 104 % of control | [14] 96 % of control | [15] 98 % of control | [16] 102 % of control

CNc1ccccc1C=O
inactive: [14] 94 % of control | [15] 97 % of control | [16] 100 % of control

CC(C)=CCNc1ncnc2c(C3OC(CO)C(O)C3O)[nH]nc12 (centres undefined)
inactive: dose: 100.0 mg/kg/injection, schedule: Q01DX005 (ip), vehicle: saline 95 % of control | dose: 200.0 mg/kg/injection, schedule: Q01DX005 (ip), vehicle: saline 95 % of control

C=CC1CN2CCC1CC2C(OC(C)=O)c1ccnc2ccc(OC)cc12 (centres undefined)
inactive: dose: 50.0 mg/kg/injection, schedule: Q01DX001 (ip), vehicle: carboxymethylcellulose (CMC) 97 % of control | [4] 101 % of control | [5] 97 % of control | [6] 92 % of control

COc1ncnc(Cl)c1[N+](=O)[O-]
inactive: dose: 50.0 mg/kg/injection, schedule: Q04DX003 (ip), vehicle: Klucel (hydroxypropylcellulose) (HPC) 92 % of control | [9] 92 % of control and 86 % of control | [11] 97 % of control and 91 % of control

CCCNCCCSCc1ccccc1
inactive: [13] 111 % of control | [14] 103 % of control

Cc1ccc2c(C)c(C)c(=O)n(C)c2c1
inactive: dose: 100.0 mg/kg/injection, schedule: Q01DX001 (ip), vehicle: other 104 % of control | dose: 200.0 mg/kg/injection, schedule: Q01DX001 (ip), vehicle: other 98 % of control | dose: 400.0 mg/kg/injection, schedule: Q01DX001 (ip), vehicle: other 95 % of control

Nc1nc2ncc(CCNc3ccc(C(=O)NC(CCC(=O)O)C(=O)O)cc3)nc2c(=O)[nH]1 (centres undefined)
inactive: dose: 18.75 mg/kg/injection, schedule: Q01DX001 (ip), vehicle: other 96 % of control | dose: 18.75 mg/kg/injection, schedule: Q01DX Z (ip), vehicle: other 103 % of control | dose: 37.5 mg/kg/injection, schedule: Q01DX001 (ip), vehicle: other 97 % of control | dose: 37.5 mg/kg/injection, schedule: Q01DX Z (ip), vehicle: other 102 % of control | dose: 75.0 mg/kg/injection, schedule: Q01DX001 (ip), vehicle: other 104 % of control | dose: 75.0 mg/kg/injection, schedule: Q01DX Z (ip), vehicle: other 112 % of control | dose: 150.0 mg/kg/injection, schedule: Q01DX001 (ip), vehicle: other 119 % of control

CCOC(=O)NS(=O)(=O)Nc1ccccc1
inactive: [4] 100 % of control | [5] 109 % of control | [6] 95 % of control

Cc1ccc(C)c(NC(=O)Nc2ccc(S(N)(=O)=O)cc2)c1
inactive: [8] 91 % of control | [10] 92 % of control | [12] 96 % of control

CC(=O)c1cc(C)c(C)c(C)c1
inactive: [14] 96 % of control | [15] 96 % of control | [16] 91 % of control

Oc1ccc(Cl)cc1C(c1cc(Cl)ccc1O)C(Cl)(Cl)Cl
inactive: dose: 100.0 mg/kg/injection, schedule: Q04DX002 (ip), vehicle: saline + alcohol 99 % of control | dose: 200.0 mg/kg/injection, schedule: Q04DX002 (ip), vehicle: saline + alcohol 108 % of control | dose: 400.0 mg/kg/injection, schedule: Q04DX002 (ip), vehicle: saline + alcohol 102 % of control
